# Experimental data published in article PMC5869189 (Frontiers in Immunology, 2018).
# Test system: PBMC from healthy, seropositive donors
# Format: cell-based, human
sequence,measurement,value
AALPDALAFARACAMRFGRL [BPSS1599_P26],% Responders,89.6%
same,Median SFC/10^6 PBMCs (IFN-g),164
AAQKAIDAAKSQVANDNAVA [BPSS1531_P40],% Responders,85.7%
same,Median SFC/10^6 PBMCs (IFN-g),198
AATAVMAASASAQSVPASRQ [BPSL2522_P2],% Responders,88.6%
same,Median SFC/10^6 PBMCs (IFN-g),273
AELAARPEYRELQPYARQQA [BPSS1525_P20],% Responders,92.3%
same,Median SFC/10^6 PBMCs (IFN-g),216
AGAILGAVVTGVALVAAAFV [BPSS1532_P44],% Responders,100.0%
same,Median SFC/10^6 PBMCs (IFN-g),156
AGTVMNVGNQVSQAAGGIVV [BPSS1532_P54],% Responders,80.6%
same,Median SFC/10^6 PBMCs (IFN-g),189
AHLVLRSLIDELQSTLRVRL [BPSS0530_P21],% Responders,93.0%
same,Median SFC/10^6 PBMCs (IFN-g),258
AHNQTLSQNRAQSVVNALAQ [BPSL0999_P16],% Responders,85.1%
same,Median SFC/10^6 PBMCs (IFN-g),350
AIFSEAKDRFCMDPATRAGN [BPSS1525_P13],% Responders,92.3%
same,Median SFC/10^6 PBMCs (IFN-g),200
ALPDGRWAYFAVRDHAFMPN [BPSS1599_P11],% Responders,95.8%
same,Median SFC/10^6 PBMCs (IFN-g),148
ALPIARVAGRNASRTVSLDP [BPSS0530_P18],% Responders,100.0%
same,Median SFC/10^6 PBMCs (IFN-g),249
APDRRVEVEVVGTQEVQKTT [BPSL2522_P21],% Responders,100.0%
same,Median SFC/10^6 PBMCs (IFN-g),273
APGGWRLERYECTPGTAHYA [BPSS1599_P28],% Responders,87.5%
same,Median SFC/10^6 PBMCs (IFN-g),163
APGTPRRLTIETGQLVTRLC [BPSS0530_P15],% Responders,93.0%
same,Median SFC/10^6 PBMCs (IFN-g),255
ASPTWRAYRLNANLGGIAPP [BPSS1599_P39],% Responders,87.5%
same,Median SFC/10^6 PBMCs (IFN-g),143
ASTSAQRVLSTGGGVADLIE [BPSS0530_P23],% Responders,90.7%
same,Median SFC/10^6 PBMCs (IFN-g),267
ATFIVDPDNTIQHVSVNNLN [BPSL2096_P14],% Responders,91.2%
same,Median SFC/10^6 PBMCs (IFN-g),344
AVNDNWVNGTGEWVWMNGTN [BPSL2522_P4],% Responders,91.4%
same,Median SFC/10^6 PBMCs (IFN-g),368
AVRDHAFMPNGDWVGSREEA [BPSS1599_P12],% Responders,97.9%
same,Median SFC/10^6 PBMCs (IFN-g),178
AWAERFDRYLDDADALVASA [BPSL2504_P8],% Responders,91.4%
same,Median SFC/10^6 PBMCs (IFN-g),317
AWRREHKDLDKLNHYSFGDV [BPSL2096_P10],% Responders,88.2%
same,Median SFC/10^6 PBMCs (IFN-g),351
CIGKIVGWVITAVSFAAAAF [BPSS1532_P35],% Responders,87.1%
same,Median SFC/10^6 PBMCs (IFN-g),172
CLALQAARTGGPEMAFGDVE [BPSS0530_P11],% Responders,97.7%
same,Median SFC/10^6 PBMCs (IFN-g),256
CMDPATRAGNVRPAFIEALG [BPSS1525_P14],% Responders,82.1%
same,Median SFC/10^6 PBMCs (IFN-g),200
DAAAKLERLLPEQGPRAPLA [BPSS1599_P36],% Responders,89.6%
same,Median SFC/10^6 PBMCs (IFN-g),143
DAARATGLPGADKQGVFTPS [BPSS1525_P16],% Responders,82.1%
same,Median SFC/10^6 PBMCs (IFN-g),197
DLDQDGLGLGRLGLRHARGV [BPSS0530_P6],% Responders,90.7%
same,Median SFC/10^6 PBMCs (IFN-g),288
DNATEAGRAQNRRVEIYLRA [BPSL0999_P20],% Responders,93.6%
same,Median SFC/10^6 PBMCs (IFN-g),353
DPLPPAMLYHELVGLLGRLS [BPSS0530_P27],% Responders,86.0%
same,Median SFC/10^6 PBMCs (IFN-g),239
DQYAITPAFTPLLNDLATTL [BPSL0999_P12],% Responders,83.0%
same,Median SFC/10^6 PBMCs (IFN-g),358
DRELGYDHDDLQTSFEPLAM [BPSS0530_P30],% Responders,88.4%
same,Median SFC/10^6 PBMCs (IFN-g),310
DRGDQVHICIVDKQWNLKKL [BPSS0530_P34],% Responders,86.0%
same,Median SFC/10^6 PBMCs (IFN-g),299
DTDGERATLDVPLTAPTAND [BPSS1599_P32],% Responders,87.5%
same,Median SFC/10^6 PBMCs (IFN-g),148
EAEEREAALERVRAELAARQ [BPSS1599_P23],% Responders,91.7%
same,Median SFC/10^6 PBMCs (IFN-g),147
EAVELAKKLKFDLMVLRIDR [BPSS1599_P4],% Responders,85.4%
same,Median SFC/10^6 PBMCs (IFN-g),137
ECTPGTAHYAWARNGSNVRY [BPSS1599_P29],% Responders,97.9%
same,Median SFC/10^6 PBMCs (IFN-g),162
EFVRAIDVPGLRVERIAYQN [BPSS1599_P41],% Responders,87.5%
same,Median SFC/10^6 PBMCs (IFN-g),135
EKLRQLLPQQTKLGAVEQIQ [BPSS0530_P37],% Responders,83.7%
same,Median SFC/10^6 PBMCs (IFN-g),222
ELCWRDAFWTPATANAKCDG [BPSL2522_P6],% Responders,91.4%
same,Median SFC/10^6 PBMCs (IFN-g),291
ELERQGFQNFQPKRLDDLLP [BPSS1599_P16],% Responders,83.3%
same,Median SFC/10^6 PBMCs (IFN-g),142
ELQSTLRVRLASTSAQRVLS [BPSS0530_P22],% Responders,88.4%
same,Median SFC/10^6 PBMCs (IFN-g),247
ELVGLLGRLSVLPGVDEELA [BPSS0530_P28],% Responders,88.4%
same,Median SFC/10^6 PBMCs (IFN-g),260
ETGQLVTRLCWKSQLRSDEV [BPSS0530_P16],% Responders,81.4%
same,Median SFC/10^6 PBMCs (IFN-g),266
ETPVLPLRFEDRGDQVHICI [BPSS0530_P33],% Responders,86.0%
same,Median SFC/10^6 PBMCs (IFN-g),233
EVPDLAVGLDAPGTPRRLTI [BPSS0530_P14],% Responders,95.3%
same,Median SFC/10^6 PBMCs (IFN-g),279
FAYWHHRAKVEAEEREAALE [BPSS1599_P22],% Responders,95.8%
same,Median SFC/10^6 PBMCs (IFN-g),169
FDLMVLRIDRGVAAAGYANT [BPSS1599_P5],% Responders,89.6%
same,Median SFC/10^6 PBMCs (IFN-g),129
FETVTEASFPGKWKIIYFYP [BPSL2096_P4],% Responders,88.2%
same,Median SFC/10^6 PBMCs (IFN-g),305
FEVESTDPFWKQTLAGSAMA [BPSS0530_P42],% Responders,83.7%
same,Median SFC/10^6 PBMCs (IFN-g),237
FSKIGETLGQLFRHRAPDSA [BPSS1525_P5],% Responders,89.7%
same,Median SFC/10^6 PBMCs (IFN-g),178
FTVVAAKPGFNNHEENGQSA [BPSL2096_P2],% Responders,88.2%
same,Median SFC/10^6 PBMCs (IFN-g),323
GAAQMTAAIAGGALQATTSL [BPSS1531_P21],% Responders,97.1%
same,Median SFC/10^6 PBMCs (IFN-g),225
GAGIGALAGGGKGAAIGAGV [BPSL0999_P5],% Responders,80.9%
same,Median SFC/10^6 PBMCs (IFN-g),346
GALGGLLAFRSQTLDPAQAQ [BPSL0280_P29],% Responders,93.1%
same,Median SFC/10^6 PBMCs (IFN-g),463
GALVGGVTGYNWQAIKNKLA [BPSL0999_P7],% Responders,80.9%
same,Median SFC/10^6 PBMCs (IFN-g),322
GDWVGSREEALERLHTDYAW [BPSS1599_P13],% Responders,95.8%
same,Median SFC/10^6 PBMCs (IFN-g),182
GGERMSDEHASVLAQEAPAR [BPSS1531_P30],% Responders,91.4%
same,Median SFC/10^6 PBMCs (IFN-g),213
GGWNVVIGEPELERQGFQNF [BPSS1599_P15],% Responders,87.5%
same,Median SFC/10^6 PBMCs (IFN-g),179
GKGAAIGAGVGALVGGVTGY [BPSL0999_P6],% Responders,91.5%
same,Median SFC/10^6 PBMCs (IFN-g),357
GPEMAFGDVELASRYRAVST [BPSS0530_P12],% Responders,97.7%
same,Median SFC/10^6 PBMCs (IFN-g),308
